Reference: ChEMBL document CHEMBL3045237, “Synthesis, DNA binding, hemolytic, and anti-cancer assays of curcumin I-based ligands and their ruthenium(III) complexes” (Med Chem Res, 2013)

Columns and labels:
MDA-MB-231 [1] = experiment: Growth inhibition of Homo sapiens (human) MDA-MB-231 cells at 0.005 mg/ml after 24 hr by MTS assay; type: functional; conditions: MDA-MB-231, 24 h, read-out: GI
HeLa [2] = experiment: Growth inhibition of Homo sapiens (human) HeLa cells at 0.05 mg/ml after 24 hr by MTS assay; type: functional; conditions: read-out: GI
HeLa [3] = experiment: Growth inhibition of Homo sapiens (human) HeLa cells at 0.5 mg/ml after 24 hr by MTS assay; type: functional; conditions: read-out: GI
[4] = Hemolytic activity against Homo sapiens (human) RBC at 10 ug/ml after 1 hr by spectrophotometric analysis relative to control; type: ADME, cell-based, Erythrocyte; conditions: red blood cells (RBC), read-out: Activity
HeLa [5] = experiment: Cytotoxicity against Homo sapiens (human) HeLa cells after 24 hr by MTS assay; type: functional, cell-based
HeLa [6] = experiment: Growth inhibition of Homo sapiens (human) HeLa cells at 0.005 mg/ml after 24 hr by MTS assay; type: functional; conditions: read-out: GI
HepG2 [7] = experiment: Growth inhibition of Homo sapiens (human) HepG2 cells at 0.005 mg/ml after 24 hr by MTS assay; type: functional; conditions: HepG2, 24 h, read-out: GI
MDA-MB-231 [8] = experiment: Growth inhibition of Homo sapiens (human) MDA-MB-231 cells at 0.05 mg/ml after 24 hr by MTS assay; type: functional; conditions: MDA-MB-231, 24 h, read-out: GI
[9] = Hemolytic activity against Homo sapiens (human) RBC at 5 ug/ml after 1 hr by spectrophotometric analysis relative to control; type: ADME, cell-based, Erythrocyte; conditions: red blood cells (RBC), read-out: Activity
HeLa [10] = experiment: Growth inhibition of Homo sapiens (human) HeLa cells at 0.0005 mg/ml after 24 hr by MTS assay; type: functional; conditions: read-out: GI
HepG2 [11] = experiment: Growth inhibition of Homo sapiens (human) HepG2 cells at 0.5 mg/ml after 24 hr by MTS assay; type: functional; conditions: HepG2, 24 h, read-out: GI
[12] = Hemolytic activity against Homo sapiens (human) RBC at 100 ug/ml after 1 hr by spectrophotometric analysis relative to control; type: ADME, cell-based, Erythrocyte; conditions: red blood cells (RBC), read-out: Activity
[13] = Hemolytic activity against Homo sapiens (human) RBC at 20 ug/ml after 1 hr by spectrophotometric analysis relative to control; type: ADME, cell-based, Erythrocyte; conditions: red blood cells (RBC), read-out: Activity
MDA-MB-231 [14] = experiment: Growth inhibition of Homo sapiens (human) MDA-MB-231 cells at 0.0005 mg/ml after 24 hr by MTS assay; type: functional; conditions: MDA-MB-231, 24 h, read-out: GI
[15] = Hemolytic activity against Homo sapiens (human) RBC at 50 ug/ml after 1 hr by spectrophotometric analysis relative to control; type: cell-based, Erythrocyte; conditions: red blood cells (RBC), read-out: Activity
HT-29 = experiment: Growth inhibition of Homo sapiens (human) HT-29 cells at 0.5 mg/ml after 24 hr by MTS assay; type: functional; conditions: HT-29, 24 h, read-out: GI
MDA-MB-231 [16] = experiment: Growth inhibition of Homo sapiens (human) MDA-MB-231 cells at 0.5 mg/ml after 24 hr by MTS assay; type: functional; conditions: MDA-MB-231, 24 h, read-out: GI

COc1cc(/C=C/C(=N\NC(N)=O)C(=Cc2ccc(O)cc2)C(/C=C/c2ccc(O)c(OC)c2)=N/NC(N)=O)ccc1O
inhibition of growth at 5 µg/mL (MDA-MB-231 [1]): 12.9%
inhibition of growth at 50 µg/mL (HeLa [2]): 35%
inhibition of growth at 500 µg/mL (HeLa [3]): 13.8%
hemolysis at 1 h, 10 ug/ml [4]: 10%
IC50 (HeLa [5]): 20.4 nM
inhibition of growth at 5 µg/mL (HeLa [6]): 33.5%
inhibition of growth at 5 µg/mL (HepG2 [7]): 0.51%
inhibition of growth at 50 µg/mL (MDA-MB-231 [8]): 7.64%
hemolysis at 1 h, 5 ug/ml [9]: 8%
inhibition of growth at 0.5 µg/mL (HeLa [10]): 30.8%
inhibition of growth at 500 µg/mL (HepG2 [11]): 0.74%
hemolysis at 1 h, 100 ug/ml [12]: 21%
hemolysis at 1 h, 20 ug/ml [13]: 12%
inhibition of growth at 0.5 µg/mL (MDA-MB-231 [14]): 21.7%
hemolysis at 1 h, 50 ug/ml [15]: 18%

N#Cc1ccc(C(c2ccc(C#N)cc2)n2cncn2)cc1 [LETROZOLE]
hemolysis at 1 h, 10 ug/ml [4]: 32%
hemolysis at 1 h, 5 ug/ml [9]: 22%
hemolysis at 1 h, 100 ug/ml [12]: 98%
hemolysis at 1 h, 20 ug/ml [13]: 60%
hemolysis at 1 h, 50 ug/ml [15]: 80%

COc1cc(/C=C/C(=N\NC(N)=O)C(=Cc2cc(OC)c(O)c(OC)c2)C(/C=C/c2ccc(O)c(OC)c2)=N/NC(N)=O)ccc1O
inhibition of growth at 50 µg/mL (HeLa [2]): 28.1%
inhibition of growth at 500 µg/mL (HT-29): 46.5%
inhibition of growth at 500 µg/mL (HeLa [3]): 53.1%
hemolysis at 1 h, 10 ug/ml [4]: 4%
inhibition of growth at 5 µg/mL (HeLa [6]): 15.8%
hemolysis at 1 h, 5 ug/ml [9]: 2%
inhibition of growth at 0.5 µg/mL (HeLa [10]): 40.1%
inhibition of growth at 500 µg/mL (HepG2 [11]): 48.1%
hemolysis at 1 h, 100 ug/ml [12]: 15%
hemolysis at 1 h, 20 ug/ml [13]: 3.9%
inhibition of growth at 0.5 µg/mL (MDA-MB-231 [14]): 8.79%
hemolysis at 1 h, 50 ug/ml [15]: 9%
inhibition of growth at 500 µg/mL (MDA-MB-231 [16]): 33.6%
